Experimental findings from PMC8068820 (Viruses, 2021) are described below.

For data set [1], the target named is T1, human NTCP (Homo sapiens, UniProt Q14973).
T1 construct: expressed in transfected cells
T1 sequence (Q14973 1-349): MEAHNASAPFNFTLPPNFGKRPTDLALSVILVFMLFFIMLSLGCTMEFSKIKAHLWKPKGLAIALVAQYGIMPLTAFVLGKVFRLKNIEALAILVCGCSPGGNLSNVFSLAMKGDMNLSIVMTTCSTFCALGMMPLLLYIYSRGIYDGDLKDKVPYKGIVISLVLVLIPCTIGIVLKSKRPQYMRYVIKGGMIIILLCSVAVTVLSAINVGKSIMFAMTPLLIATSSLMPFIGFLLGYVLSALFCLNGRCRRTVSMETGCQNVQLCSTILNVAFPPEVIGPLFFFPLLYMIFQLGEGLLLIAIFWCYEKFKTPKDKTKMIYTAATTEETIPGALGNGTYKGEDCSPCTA
Briefly: [3H]preS1 peptide. In kind it is binding. The settings on record: for remaining activity at 100 µM / inhibition at 100 µM: 100 µM inhibitor; for remaining activity at 100 µM: 5 nM [3H]preS1, pre-screen, read-out: remaining [3H]preS1 binding compared to untreated control; for virus/preS1 selectivity (in words): [3H]preS1 binding versus [3H]TC uptake inhibition; for [3H]preS1 binding inhibition (in words): 100 µM inhibitor where from Figure 6, SAR statements; for inhibition at 100 µM: 5 nM [3H]preS1, read-out: inhibition of [3H]preS1 peptide binding.

Data set [2] addresses T1, human NTCP. Briefly: [3H]taurocholic acid ([3H]TC) transport inhibition in NTCP-HEK293 cells. Format: cell-based. The settings on record: for IC50: NTCP-HEK293 cells.
A further data set deals with NTCP-HepG2 cells. Briefly: MTT cytotoxicity assay in NTCP-HepG2 cells. In kind it is cell-based, human. The note with it: NTCP-HepG2 cells, 5, 50 and 300 µM, 6 h incubation.
The next data set has as its system HDV. Description: In vitro HDV infection of NTCP-HepG2 cells (HDAg immunostaining). In kind it is cell-based, Hepatitis D virus. The settings on record: 5 µM to 300 µM.
Where [3] appears, read: 95% confidence interval, inhibition of 5 nM [3H]preS1 binding, NTCP-HEK293 cells, 10 min, 37 °C, read-out: IC50 ([3H]preS1 Binding).
The mark [4] stands for this setting: 95% confidence interval, inhibition of 1 µM [3H]TC uptake, 10 min, 37 °C, read-out: IC50 ([3H]TC Uptake).
Setting [5] is: 5 nM [3H]preS1, NTCP-HEK293 cells, read-out: IC50 [3H]preS1 binding inhibition (single value).
Setting [6] is: 1 µM [3H]TC, read-out: IC50 taurocholic acid uptake inhibition (single value).

Entries after “also recorded” stand apart in the source; their conditions may differ.

Regarding `O=C(Nc1ccc(Cl)cc1)c1cc(Oc2ccc(Cl)cc2)ccc1NS(=O)(=O)c1ccc(Cl)cc1` [A000028897], at human NTCP [1], the remaining activity at 100 µM was under 50% and the “virus/preS1 selectivity (in words)” value is “more or less non-selective”. The IC50 (usually the concentration that gives 50% inhibition) on human NTCP [1] (setting [3]) lay within 3 to 24 µM. Moreover, the IC50 at human NTCP [2] (setting [4]) lay within 16 to 62 µM. Moreover, in the data set on NTCP-HepG2 cells, the “Cytotoxicity (in words)” value was “obvious cytotoxicity even at low (5 µM) concentrations; also recorded: toxic”.
As to `O[C@@H](c1ccccc1)[C@@H](c1ccccn1)[C@H](Nc1ccccn1)c1cccc(Br)c1` [A000289041], at human NTCP [1], the “[3H]preS1 binding inhibition (in words)” value was “relatively high” and the remaining activity at 100 µM was under 50%. For the same compound, at human NTCP [1] (setting [3]), the IC50 lay within 35 to 224 µM. Further, the IC50 on human NTCP [2] (setting [4]) is over 1000 µM.
For `O[C@H](c1ccc2ccccc2c1)[C@H](c1ccccn1)[C@@H](Nc1ccccn1)c1ccccc1` [A000294559], at human NTCP [1], the “[3H]preS1 binding inhibition (in words)” value is recorded as “significant but less potent” and the inhibition (in general, how much of the control response was suppressed) at 100 µM was at most 50%.
As to `O[C@H](c1ccccc1)[C@@H](c1ccc2ccccc2n1)[C@H](Nc1ccccn1)c1ccccc1` [A000295013], the IC50 at human NTCP [1] (setting [5]) is about 130 µM; at human NTCP [1] (setting [3]), 73 to 194 µM; on human NTCP [2] (setting [4]), over 1000 µM. At human NTCP [1], the remaining activity at 100 µM was under 50%.
Regarding `O[C@H](c1ccccc1)[C@@H](c1ccccn1)[C@H](Nc1ccc(F)cn1)c1ccccc1` [A000295230], at human NTCP [1], the “[3H]preS1 binding inhibition (in words)” value was “significant but less potent” and the inhibition at 100 µM is at most 50%.
Take `COc1ccc([C@H](O)[C@H](c2ccccn2)[C@@H](Nc2ccccn2)c2ccccc2)cc1` [A000295231]: the “inhibition of in vitro HDV infection (in words)” value in the data set with HDV is on record as “significant concentration-dependent inhibition; also recorded: active against in vitro HDV infection”. Besides, the IC50 at human NTCP [1] (setting [5]) is 17 µM; at human NTCP [1] (setting [3]), 4 to 29 µM; on human NTCP [2] (setting [6]), 780 µM; on human NTCP [2] (setting [4]) it was 341 to 1220 µM. The “[3H]preS1 binding inhibition (in words)” value at human NTCP [1] is “even further improved the inhibitory potency”. In addition, at human NTCP [1], the remaining activity at 100 µM is under 50%. The “virus/preS1 selectivity (in words)” value at human NTCP [1] is reported as “some selectivity towards the virus receptor function of NTCP”.
`O[C@H](c1ccccc1)[C@@H](c1ccccn1)[C@H](Nc1ccccc1)c1ccccc1` [A000295238]: the “[3H]preS1 binding inhibition (in words)” value at human NTCP [1] was “inactive”.
As for `COc1ccc(N[C@H](c2ccccc2)[C@H](c2ccccn2)[C@H](O)c2ccccc2)nc1` [A000295480], at human NTCP [1], the “[3H]preS1 binding inhibition (in words)” value is “relatively high”, the remaining activity at 100 µM is under 50% and the “virus/preS1 selectivity (in words)” value was “more or less non-selective”. Further, the concentration for half-maximal inhibition (IC50) on human NTCP [1] (setting [3]) is 32 to 297 µM. Besides, the 50% inhibitory concentration (IC50) at human NTCP [2] (setting [4]) fell in the range of 145 to 1320 µM.
`Nc1ccc([C@H](O)[C@H](c2ccccn2)[C@@H](Nc2ccccn2)c2ccccc2)cc1` [A000295724]: the “[3H]preS1 binding inhibition (in words)” value on human NTCP [1] is “inactive”.
Consider `O[C@@H](c1ccccc1)[C@H](c1ccccn1)[C@@H](Nc1ccc(Cl)cn1)c1ccccc1` [A000296575], for which, at human NTCP [1], the “[3H]preS1 binding inhibition (in words)” value is given as “significant but less potent” and the inhibition at 100 µM is at most 50%.
Regarding `Oc1cccc([C@H](O)[C@H](c2ccccn2)[C@@H](Nc2ccccn2)c2ccccc2)c1` [A000296584], the “[3H]preS1 binding inhibition (in words)” value at human NTCP [1] was “significant, but less active inhibitors”.
As to `O[C@@H](c1ccccc1)[C@@H](c1ccccn1)[C@H](Nc1ccccn1)c1ccsc1` [A000344053], on human NTCP [1], the “[3H]preS1 binding inhibition (in words)” value is “significant but less potent” and the inhibition at 100 µM is at most 50%.
Consider `O[C@@H](c1ccccc1)[C@H](c1ccccn1)[C@@H](Nc1ccccn1)c1ccccc1` [S957291], for which the “[3H]preS1 binding inhibition (in words)” value at human NTCP [1] was “significantly increased the inhibitory potency”. Besides, the “[3H]TC uptake inhibition (in words)” value at human NTCP [2] (100 µM inhibitor, Figure 6) is “significantly increased the inhibitory potency”.
Turning to `O[C@@H](c1cccnc1)[C@H](c1ccccn1)[C@@H](Nc1ccccn1)c1ccccc1` [S958009], at human NTCP [1], the “[3H]preS1 binding inhibition (in words)” value is “inactive”.
On to `COc1cccc([C@H](O)[C@H](c2ccccn2)[C@@H](Nc2ccccn2)c2ccccc2)c1` [S963601], for which the “[3H]preS1 binding inhibition (in words)” value at human NTCP [1] was “significant, but less active inhibitors”.
Consider `O[C@H](c1ccc([C@@H](O)[C@@H](c2ccccn2)[C@H](Nc2ccccn2)c2ccccc2)cc1)[C@@H](c1ccccn1)[C@H](Nc1ccccn1)c1ccccc1` [S973509], for which the “inhibition of in vitro HDV infection (in words)” value in the data set with HDV is on record as “significant concentration-dependent inhibition; also recorded: active against in vitro HDV infection”. Moreover, the half-inhibitory concentration (IC50) on human NTCP [1] (setting [5]) is 7 µM; on human NTCP [1] (setting [3]), 3 to 10 µM; on human NTCP [2] (setting [6]) it was 490 µM; at human NTCP [2] (setting [4]), 202 to 775 µM. In addition, the remaining activity at 100 µM at human NTCP [1] was under 50%. On human NTCP [1], the “virus/preS1 selectivity (in words)” value was “some selectivity towards the virus receptor function of NTCP”.
Regarding `O[C@@H](c1ccccc1)[C@@H](c1ccccn1)[C@H](Nc1ccccn1)c1cccc2ccccc12` [S973515], at human NTCP [1], the “[3H]preS1 binding inhibition (in words)” value is on record as “relatively high” and the remaining activity at 100 µM was under 50%. Further, at human NTCP [1] (setting [3]), the IC50 fell in the range of 39 to 148 µM. Further, the IC50 on human NTCP [2] (setting [4]) is 413 to 1240 µM.
In the case of `O=Cc1cccc([C@@H]([C@H](Nc2ccccn2)c2ccccc2)[C@@H](O)c2ccccc2)n1` [S985852], in the data set with HDV, the “inhibition of in vitro HDV infection (in words)” value is “significant concentration-dependent inhibition; also recorded: active against in vitro HDV infection”. The IC50 on human NTCP [1] (setting [5]) is about 15 µM; at human NTCP [1] (setting [3]), 8 to 24 µM; on human NTCP [2] (setting [6]) it was 24 µM; on human NTCP [2] (setting [4]), 13 to 34 µM. Besides, on human NTCP [1], the remaining activity at 100 µM was under 50%. For the same compound, the “virus/preS1 selectivity (in words)” value on human NTCP [1] was “more or less non-selective”. Further, the “Cytotoxicity (in words)” value with NTCP-HepG2 cells is given as “critical cytotoxicity at 300 µM”.
